Results reported in PMC9090415, “Discovery of small molecule inhibitors of Plasmodium falciparum apicoplast DNA polymerase” (Journal of Enzyme Inhibition and Medicinal Chemistry, 2022).

Target: P. falciparum apicoplast DNA polymerase (Pf-apPOL) (Plasmodium falciparum, UniProt Q8ILY1)
Test: Fluorescence-based high-throughput DNA polymerase assay (molecular beacon), primary screen and dose-response;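 on % inhibition Apol 40': compound concentration given in µM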
Format: biochemical
Conditions: for DNA Pol: 90 min, 10 µM
Summary of the method: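 Single-point screening used 10 µM compound with 20 nM polymerase, 20 nM hairpin substrate and 6 µM dNTPs for 90 min at 25 °C. Confirmatory titrations (2.5–80 µM) followed fluorescence at three times, and IC50 was derived from a fit including a cooperativity term n.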

[1] = "DNA Pol" of the 186 hits list (screen value)

P. falciparum apicoplast DNA polymerase (Pf-apPOL), sequence (Q8ILY1 entry or part of it): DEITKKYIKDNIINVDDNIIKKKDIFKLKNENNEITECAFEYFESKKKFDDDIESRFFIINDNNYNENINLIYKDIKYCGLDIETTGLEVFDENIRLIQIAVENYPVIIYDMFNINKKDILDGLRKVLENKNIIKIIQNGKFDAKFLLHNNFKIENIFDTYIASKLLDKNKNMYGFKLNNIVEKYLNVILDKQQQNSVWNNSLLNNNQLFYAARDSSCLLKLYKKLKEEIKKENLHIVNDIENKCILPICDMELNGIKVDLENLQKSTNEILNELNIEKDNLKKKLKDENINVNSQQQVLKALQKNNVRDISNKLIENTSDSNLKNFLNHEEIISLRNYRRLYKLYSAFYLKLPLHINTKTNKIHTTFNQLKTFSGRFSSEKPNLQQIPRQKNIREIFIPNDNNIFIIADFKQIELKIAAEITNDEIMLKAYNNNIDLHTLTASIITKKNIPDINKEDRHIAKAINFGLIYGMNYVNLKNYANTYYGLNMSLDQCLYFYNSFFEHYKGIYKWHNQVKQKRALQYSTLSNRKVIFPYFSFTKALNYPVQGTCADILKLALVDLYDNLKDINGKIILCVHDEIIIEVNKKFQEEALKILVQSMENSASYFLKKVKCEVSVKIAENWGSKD

O=[N+]([O-])c1ccc(/C=C/c2ccc3ccccc3n2)o1 [Molecule 21, O=N(=O)c1ccc(o1)/C=C/c1ccc2c(n1)cccc2]
DNA Pol [1]: 59 | % inhibition Apo pol 10' (DRC-1, concentration 2.5): 21.0135% | % inhibition Apo pol 10' (DRC-1, concentration 5): 49.9982% | % inhibition Apo pol 10' (DRC-1, concentration 10): 70.3482% | % inhibition Apo pol 10' (DRC-1, concentration 20): 76.4404% | % inhibition Apo pol 10' (DRC-1, concentration 40): 64.8126% | % inhibition Apo pol 10' (DRC-1, concentration 80): 40.0961% | % inhibition Apol 90' (DRC-1, concentration 2.5): 13.3257% | % inhibition Apol 90' (DRC-1, concentration 5): 34.694% | % inhibition Apol 90' (DRC-1, concentration 10): 59.8691% | % inhibition Apol 90' (DRC-1, concentration 20): 78.6772% | % inhibition Apol 90' (DRC-1, concentration 40): 78.7593% | % inhibition Apol 90' (DRC-1, concentration 80): 64.7186% | % inhibition apPOL 180' (DRC-1, concentration 2.5): 4.404% | % inhibition apPOL 180' (DRC-1, concentration 5): 20.9702% | % inhibition apPOL 180' (DRC-1, concentration 10): 46.0127% | % inhibition apPOL 180' (DRC-1, concentration 20): 74.6169% | % inhibition apPOL 180' (DRC-1, concentration 40): 82.0338% | % inhibition apPOL 180' (DRC-1, concentration 80): 72.6505% | % inhibition Apo pol 5' (DRC-2, concentration 2.5): 37% | % inhibition Apo pol 5' (DRC-2, concentration 5): 38% | % inhibition Apo pol 5' (DRC-2, concentration 10): 41% | % inhibition Apo pol 5' (DRC-2, concentration 20): 27% | % inhibition Apo pol 5' (DRC-2, concentration 40): 16% | % inhibition Apo pol 5' (DRC-2, concentration 80): -66% | % inhibition Apol 40' (DRC-2, concentration 2.5): 44% | % inhibition Apol 40' (DRC-2, concentration 5): 51% | % inhibition Apol 40' (DRC-2, concentration 10): 63% | % inhibition Apol 40' (DRC-2, concentration 20): 61% | % inhibition Apol 40' (DRC-2, concentration 40): 54% | % inhibition Apol 40' (DRC-2, concentration 80): 10% | % inhibition ApPOL 90' (DRC-2, concentration 2.5): 41% | % inhibition ApPOL 90' (DRC-2, concentration 5): 50% | % inhibition ApPOL 90' (DRC-2, concentration 10): 65% | % inhibition ApPOL 90' (DRC-2, concentration 20): 67% | % inhibition ApPOL 90' (DRC-2, concentration 40): 62% | % inhibition ApPOL 90' (DRC-2, concentration 80): 30% | % inhibition apPOL 180' (DRC-2, concentration 2.5): 29% | % inhibition apPOL 180' (DRC-2, concentration 5): 39% | % inhibition apPOL 180' (DRC-2, concentration 10): 61% | % inhibition apPOL 180' (DRC-2, concentration 20): 71% | % inhibition apPOL 180' (DRC-2, concentration 40): 69% | % inhibition apPOL 180' (DRC-2, concentration 80): 50% | DNA Pol (primary screen value, DNA Pol): 59

Cc1ccc(NC(=O)C2CCN(C(=O)c3cc4ccsc4[nH]3)CC2)c(Br)c1 [Molecule 14, O=C(C1CCN(CC1)C(=O)c1cc2c([nH]1)scc2)Nc1ccc(cc1Br)C]
DNA Pol [1]: 67 | % inhibition Apo pol 10' (DRC-1, concentration 2.5): 11% | % inhibition Apo pol 10' (DRC-1, concentration 5): 36% | % inhibition Apo pol 10' (DRC-1, concentration 10): 68% | % inhibition Apo pol 10' (DRC-1, concentration 20): 88% | % inhibition Apo pol 10' (DRC-1, concentration 40): 87% | % inhibition Apo pol 10' (DRC-1, concentration 80): 89% | % inhibition Apol 90' (DRC-1, concentration 2.5): 6% | % inhibition Apol 90' (DRC-1, concentration 5): 22% | % inhibition Apol 90' (DRC-1, concentration 10): 48% | % inhibition Apol 90' (DRC-1, concentration 20): 76% | % inhibition Apol 90' (DRC-1, concentration 40): 77% | % inhibition Apol 90' (DRC-1, concentration 80): 84% | % inhibition apPOL 180' (DRC-1, concentration 2.5): 5% | % inhibition apPOL 180' (DRC-1, concentration 5): 12% | % inhibition apPOL 180' (DRC-1, concentration 10): 30% | % inhibition apPOL 180' (DRC-1, concentration 20): 61% | % inhibition apPOL 180' (DRC-1, concentration 40): 63% | % inhibition apPOL 180' (DRC-1, concentration 80): 75% | % inhibition Apo pol 5' (DRC-2, concentration 2.5): 11% | % inhibition Apo pol 5' (DRC-2, concentration 5): 22% | % inhibition Apo pol 5' (DRC-2, concentration 10): 43% | % inhibition Apo pol 5' (DRC-2, concentration 20): 50% | % inhibition Apo pol 5' (DRC-2, concentration 40): 54% | % inhibition Apo pol 5' (DRC-2, concentration 80): 48% | % inhibition Apol 40' (DRC-2, concentration 2.5): 9% | % inhibition Apol 40' (DRC-2, concentration 5): 22% | % inhibition Apol 40' (DRC-2, concentration 10): 49% | % inhibition Apol 40' (DRC-2, concentration 20): 62% | % inhibition Apol 40' (DRC-2, concentration 40): 68% | % inhibition Apol 40' (DRC-2, concentration 80): 67% | % inhibition ApPOL 90' (DRC-2, concentration 2.5): 8.49% | % inhibition ApPOL 90' (DRC-2, concentration 5): 18% | % inhibition ApPOL 90' (DRC-2, concentration 10): 45% | % inhibition ApPOL 90' (DRC-2, concentration 20): 61% | % inhibition ApPOL 90' (DRC-2, concentration 40): 68% | % inhibition ApPOL 90' (DRC-2, concentration 80): 70% | % inhibition apPOL 180' (DRC-2, concentration 2.5): 2.63% | % inhibition apPOL 180' (DRC-2, concentration 5): 12% | % inhibition apPOL 180' (DRC-2, concentration 10): 34% | % inhibition apPOL 180' (DRC-2, concentration 20): 52% | % inhibition apPOL 180' (DRC-2, concentration 40): 64% | % inhibition apPOL 180' (DRC-2, concentration 80): 69% | % inhibition Apo pol 10' (first DRC, concentration 2.5): 11% | % inhibition Apo pol 10' (first DRC, concentration 10): 68% | % inhibition Apol 90' (first DRC, concentration 5): 22% | % inhibition Apol 90' (first DRC, concentration 10): 48% | % inhibition apPOL 180' (first DRC, concentration 5): 12% | % inhibition apPOL 180' (first DRC, concentration 20): 61% | DNA Pol (primary screen value, DNA Pol): 67

Cc1ccccc1C(=O)N1CCc2c(nc3cc(-c4ccccc4)[nH]n3c2=O)C1 [Molecule 41, Cc1ccccc1C(=O)N1CCc2c(C1)nc1n(c2=O)[nH]c(c1)c1ccccc1]
DNA Pol ('DNA Pol' of the 186 hits list (primary screen value)): 47 | DNA Pol (DNA Pol (primary screen value)): 47 | % inhibition Apo pol 10' (DRC-1, concentration 2.5): 6.184% | % inhibition Apo pol 10' (DRC-1, concentration 5): 10.1754% | % inhibition Apo pol 10' (DRC-1, concentration 10): 45.445% | % inhibition Apo pol 10' (DRC-1, concentration 20): 74.5975% | % inhibition Apo pol 10' (DRC-1, concentration 40): 80.8347% | % inhibition Apo pol 10' (DRC-1, concentration 80): 67.5135% | % inhibition Apol 90' (DRC-1, concentration 2.5): 1.828% | % inhibition Apol 90' (DRC-1, concentration 5): 3.445% | % inhibition Apol 90' (DRC-1, concentration 10): 31.8176% | % inhibition Apol 90' (DRC-1, concentration 20): 59.5671% | % inhibition Apol 90' (DRC-1, concentration 40): 74.5448% | % inhibition Apol 90' (DRC-1, concentration 80): 71.589% | % inhibition apPOL 180' (DRC-1, concentration 2.5): -1.511% | % inhibition apPOL 180' (DRC-1, concentration 5): -3.248% | % inhibition apPOL 180' (DRC-1, concentration 10): 20.9007% | % inhibition apPOL 180' (DRC-1, concentration 20): 43.9765% | % inhibition apPOL 180' (DRC-1, concentration 40): 64.8377% | % inhibition apPOL 180' (DRC-1, concentration 80): 65.5415% | % inhibition Apo pol 5' (DRC-2, concentration 2.5): 7% | % inhibition Apo pol 5' (DRC-2, concentration 5): 8% | % inhibition Apo pol 5' (DRC-2, concentration 10): 20% | % inhibition Apo pol 5' (DRC-2, concentration 20): 17% | % inhibition Apo pol 5' (DRC-2, concentration 40): 46% | % inhibition Apo pol 5' (DRC-2, concentration 80): 29% | % inhibition Apol 40' (DRC-2, concentration 2.5): 9% | % inhibition Apol 40' (DRC-2, concentration 5): 5.58% | % inhibition Apol 40' (DRC-2, concentration 10): 22% | % inhibition Apol 40' (DRC-2, concentration 20): 18% | % inhibition Apol 40' (DRC-2, concentration 40): 61% | % inhibition Apol 40' (DRC-2, concentration 80): 54% | % inhibition ApPOL 90' (DRC-2, concentration 2.5): 8% | % inhibition ApPOL 90' (DRC-2, concentration 5): 5% | % inhibition ApPOL 90' (DRC-2, concentration 10): 21% | % inhibition ApPOL 90' (DRC-2, concentration 20): 17% | % inhibition ApPOL 90' (DRC-2, concentration 40): 61% | % inhibition ApPOL 90' (DRC-2, concentration 80): 59% | % inhibition apPOL 180' (DRC-2, concentration 2.5): 4.5% | % inhibition apPOL 180' (DRC-2, concentration 5): 1.21% | % inhibition apPOL 180' (DRC-2, concentration 10): 16% | % inhibition apPOL 180' (DRC-2, concentration 20): 9% | % inhibition apPOL 180' (DRC-2, concentration 40): 55% | % inhibition apPOL 180' (DRC-2, concentration 80): 58%
